Laboratory results: US8367696B2, “Aza-bridged-ring compound” (Astellas Pharma Inc., priority 2007, dated 2013)

Tested on: carbachol-induced airway contraction
Experiment: Test of rat airway contraction (carbachol-induced rise in airway pressure)
Type: in vivo
Settings: evaluation after 3 hours from oral administration, carbachol 30 μg/kg i.v.
Method: a. Test of Rat Airway Contraction
Male SD rats (250 to 400 g) were anesthetized by the intraperitoneal administration of pentobarbital sodium (Nembutal; 50 mg/kg), and the major airway was dissected. An airway cannula was intubated into the trachea, and the pressure in the airway was measured by a pressure transducer. After administration of pancuronium bromide (0.2 mg/kg, i.v.), a stable pressure in the airway was obtained before the experiment was initiated. For the experiment, by administration into the external maxillary vein/administration into the duodenum/oral administration/administration into the airway, physiological saline (in the case of oral administration/administration into the duodenum, distilled water) or a compound to be tested was administered, and after 5 to 30 minutes in the case of intravenous administration, after 0.25 to 6 hours in the case of oral administration into the duodenum, and after 0.25 to 72 hours in the case of administration into the airway, carbachol was intravenously administered at a dose (volume) of 30 μg/kg (1 mL/kg), and the pressures in the airway were then measured, respectively, for a period of 5 minutes. […]

Point of comparison: `Cl.O=C(Nc1ncsc1-c1ccccc1)OCC1CN2CCCC1C2` (centres unmarked) [Example 264], “ID50, carbachol-induced airway contraction inhibitory action” value 0.21 mg/kg. Against it:
- Cl.O=C(Nc1ncsc1-c1ccccc1)OCC12CCN(CC1)CC2 [Example 6, 1-azabicyclo[2.2.2]oct-4-ylmethyl(5-phenyl-1,3-thiazol-4-yl)carbamate hydrochloride] — 2.1-fold lower, 0.1 mg/kg
- Cl.O=C(Nc1ncsc1-c1ccccc1)OC1C2CC3CC1CN(C3)C2 (centres unmarked) [Example 110] — 2-fold higher, 0.41 mg/kg
- O=C(Nc1ncsc1-c1ccccc1)OC12CCCN(CC1)CC2 [Example 14, 1-azabicyclo[3.2.2]non-5-yl(5-phenyl-1,3-thiazol-4-yl)carbamate] — 7.8-fold lower, 0.027 mg/kg
- Cl.O=C(Nc1ncsc1-c1ccc(F)cc1)OC12CCN(CC1)CC2 [Example 156] — 2.3-fold lower, 0.091 mg/kg
- Cl.O=C(Nc1ccsc1-c1ccccc1)OCC1CN2CCC1CC2 (centres unmarked) [Example 136] — 3.2-fold higher, 0.68 mg/kg

Same assay, conditions: evaluation after 24 hours from administration into the trachea of 0.5 μg/kg of a drug

Point of comparison: `C[N+]12CCC(OC(=O)Nc3ncsc3-c3cc(F)ccc3F)(CC1)CC2.[I-]` [Example 57], “Inhibition rate, carbachol-induced airway contraction inhibitory action” value 64%. Against it:
- O=C(Nc1ncsc1-c1cccc(Cl)c1)OC12CC[N+](CCOc3ccccc3)(CC1)CC2.[Br-] [Example 66] — higher, 80%
- O=C(Nc1ncsc1-c1ccccc1)OC12CC[N+](CCc3ccccc3)(CC1)CC2 [Example 50] — lower, 61%
- C[N+]12CCC(OC(=O)Nc3ncsc3-c3cccc(Cl)c3)(CC1)CC2 [Example 32] — higher, 82%
- O=C(Nc1ccsc1-c1ccccc1)OCC1C[N+]2(CCCc3ccccc3)CCC1CC2 (centres unmarked) [Example 43] — the same, 64%
- O=C(Nc1ncsc1-c1ccccc1)OC12CC[N+](CCOc3ccccc3)(CC1)CC2 [Example 46] — higher, 90%
- C[N+]12CCCC(OC(=O)Nc3ncsc3-c3ccccc3)(CC1)CC2.[I-] [Example 65] — lower, 61%

Target: muscarinic M3 receptor (Rattus norvegicus, UniProt P08483)
Sequence (P08483 whole entry): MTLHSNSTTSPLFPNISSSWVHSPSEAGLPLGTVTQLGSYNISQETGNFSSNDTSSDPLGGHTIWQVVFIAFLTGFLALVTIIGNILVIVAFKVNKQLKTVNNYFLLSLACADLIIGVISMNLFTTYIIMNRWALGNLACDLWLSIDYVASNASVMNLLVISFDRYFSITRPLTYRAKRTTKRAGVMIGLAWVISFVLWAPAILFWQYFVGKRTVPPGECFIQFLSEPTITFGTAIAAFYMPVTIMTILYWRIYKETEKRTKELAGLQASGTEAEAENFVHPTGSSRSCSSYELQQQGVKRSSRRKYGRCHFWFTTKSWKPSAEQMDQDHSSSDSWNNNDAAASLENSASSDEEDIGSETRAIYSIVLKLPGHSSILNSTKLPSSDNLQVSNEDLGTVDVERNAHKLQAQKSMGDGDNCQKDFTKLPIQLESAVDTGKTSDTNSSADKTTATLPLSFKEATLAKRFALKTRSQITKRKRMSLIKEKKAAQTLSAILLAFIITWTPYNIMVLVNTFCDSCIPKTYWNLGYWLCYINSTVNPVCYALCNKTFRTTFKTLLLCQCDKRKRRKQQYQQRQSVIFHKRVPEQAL
Experiment: not given
Settings: receptor binding antagonistic experiment, [3H]-N-methylscopolamine, rat membrane specimen, 25° C. 2 hours

`O=C(Nc1ncsc1-c1ccccc1)OC12CCN(CC1)CC2` [Example 95] was tested, and the Ki was 0.2 nM.
